According to patent CN116462616A, “炔酰胺类化合物及其应用” (Jinan University, priority 2022, dated 2023):

Legend:
[1] = tested on: proteins of HepG2 cells [人源肝癌细胞HepG2]; experiment: Covalent modification of protein amino acid residues in tumour cells (live-cell labelling, gel fluorescence); format: cell-based, human; conditions: HepG2, 50 μM probe, 37 °C, 3 h
[2] = molecular target: T1, bovine serum albumin [牛血清蛋白] (Bos taurus, UniProt P02769); experiment: Covalent modification of amino acid residues of a pure protein (gel fluorescence after click chemistry); format: binding; conditions: 10.0 μM probe, 1 mg/mL protein, 37 °C, 3 h
T1 sequence (P02769 25-607): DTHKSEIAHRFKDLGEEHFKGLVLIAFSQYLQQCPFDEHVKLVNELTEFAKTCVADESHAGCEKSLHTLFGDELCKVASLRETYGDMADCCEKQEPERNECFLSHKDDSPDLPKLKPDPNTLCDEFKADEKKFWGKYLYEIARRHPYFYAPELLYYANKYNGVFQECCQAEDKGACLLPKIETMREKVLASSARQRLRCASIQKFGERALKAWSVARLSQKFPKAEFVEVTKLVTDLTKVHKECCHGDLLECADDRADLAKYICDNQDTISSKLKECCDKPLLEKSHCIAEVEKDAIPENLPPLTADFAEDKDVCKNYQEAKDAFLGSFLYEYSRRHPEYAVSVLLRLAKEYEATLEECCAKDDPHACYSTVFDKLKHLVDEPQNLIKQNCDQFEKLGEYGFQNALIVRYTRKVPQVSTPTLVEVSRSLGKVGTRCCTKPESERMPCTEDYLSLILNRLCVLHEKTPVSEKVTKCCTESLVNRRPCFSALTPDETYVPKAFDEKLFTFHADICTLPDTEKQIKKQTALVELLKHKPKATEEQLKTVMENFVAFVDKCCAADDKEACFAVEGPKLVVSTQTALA

ECH1 = molecular target: T2, ECH1 (Homo sapiens, UniProt Q13011); experiment: Pull-down and western blot, ECH1; format: binding; conditions: 50 μM, HepG2/H3255 cells, 37 °C, 5 h
T2 construct: 50μM分子探针YN-1和YN-4与HepG2/H3255细胞于37℃孵育5h; endogenous in cells; host or cells: HepG2/H3255
T2 sequence (Q13011 34-328): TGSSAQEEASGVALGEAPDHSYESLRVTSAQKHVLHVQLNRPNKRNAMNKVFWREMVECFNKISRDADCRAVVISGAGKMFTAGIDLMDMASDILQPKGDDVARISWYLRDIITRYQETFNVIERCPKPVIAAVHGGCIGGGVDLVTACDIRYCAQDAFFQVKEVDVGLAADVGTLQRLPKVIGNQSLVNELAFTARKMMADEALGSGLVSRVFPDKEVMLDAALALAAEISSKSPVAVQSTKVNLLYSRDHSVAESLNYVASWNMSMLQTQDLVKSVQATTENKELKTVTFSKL

MEK2 = molecular target: T3, MEK2 (Homo sapiens, UniProt P36507); experiment: Pull-down and western blot, MEK2; format: binding; conditions: 50 μM, HepG2/H3255 cells, 37 °C, 5 h
T3 construct: 50μM分子探针YN-1和YN-4与HepG2/H3255细胞于37℃孵育5h; endogenous in cells; host or cells: HepG2/H3255
T3 sequence (P36507 whole entry): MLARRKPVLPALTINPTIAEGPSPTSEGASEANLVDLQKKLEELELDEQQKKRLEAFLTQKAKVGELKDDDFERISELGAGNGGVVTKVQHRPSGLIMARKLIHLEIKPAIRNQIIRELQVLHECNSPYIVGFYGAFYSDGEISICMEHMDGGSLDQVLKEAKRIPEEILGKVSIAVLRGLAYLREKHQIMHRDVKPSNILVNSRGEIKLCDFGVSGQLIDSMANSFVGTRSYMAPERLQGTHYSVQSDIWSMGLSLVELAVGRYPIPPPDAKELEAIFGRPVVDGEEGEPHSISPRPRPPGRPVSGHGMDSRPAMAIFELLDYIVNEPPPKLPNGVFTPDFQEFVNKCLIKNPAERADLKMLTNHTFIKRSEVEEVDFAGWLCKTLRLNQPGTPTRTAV

[3] = molecular target: T1, bovine serum albumin [牛血清蛋白]; experiment: Selective modification of acidic amino acid residues of a pure protein (biological mass spectrometry); format: binding; conditions: 100 μM, 37 °C, 0.5 h
GAPDH = molecular target: T4, GAPDH (Homo sapiens, UniProt P04406); experiment: Pull-down and western blot, GAPDH; format: binding; conditions: 50 μM, HepG2/H3255 cells, 37 °C, 5 h
T4 construct: 50μM分子探针YN-1和YN-4与HepG2/H3255细胞于37℃孵育5h; endogenous in cells; host or cells: HepG2/H3255
T4 sequence (P04406 whole entry): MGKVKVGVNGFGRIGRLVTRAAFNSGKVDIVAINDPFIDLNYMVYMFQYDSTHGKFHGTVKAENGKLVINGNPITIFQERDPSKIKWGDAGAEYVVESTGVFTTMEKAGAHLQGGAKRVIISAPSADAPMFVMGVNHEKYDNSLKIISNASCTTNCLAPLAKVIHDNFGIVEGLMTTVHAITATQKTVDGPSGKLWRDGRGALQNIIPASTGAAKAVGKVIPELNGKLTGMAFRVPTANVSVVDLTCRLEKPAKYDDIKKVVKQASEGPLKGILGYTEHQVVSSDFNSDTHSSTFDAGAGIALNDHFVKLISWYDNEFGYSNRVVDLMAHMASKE

HepG2 cells [HepG2细胞] = experiment: Selective modification of acidic amino acid residues in cells (biological mass spectrometry); format: cell-based, human; conditions: 100 μM, 37 °C, 8 h
ALDH1 = molecular target: T5, ALDH1 (Homo sapiens, UniProt P00352); experiment: Pull-down and western blot, ALDH1; format: binding; conditions: 50 μM, HepG2/H3255 cells, 37 °C, 5 h
T5 construct: 50μM分子探针YN-1和YN-4与HepG2/H3255细胞于37℃孵育5h; endogenous in cells; host or cells: HepG2/H3255
T5 sequence (P00352 1-501): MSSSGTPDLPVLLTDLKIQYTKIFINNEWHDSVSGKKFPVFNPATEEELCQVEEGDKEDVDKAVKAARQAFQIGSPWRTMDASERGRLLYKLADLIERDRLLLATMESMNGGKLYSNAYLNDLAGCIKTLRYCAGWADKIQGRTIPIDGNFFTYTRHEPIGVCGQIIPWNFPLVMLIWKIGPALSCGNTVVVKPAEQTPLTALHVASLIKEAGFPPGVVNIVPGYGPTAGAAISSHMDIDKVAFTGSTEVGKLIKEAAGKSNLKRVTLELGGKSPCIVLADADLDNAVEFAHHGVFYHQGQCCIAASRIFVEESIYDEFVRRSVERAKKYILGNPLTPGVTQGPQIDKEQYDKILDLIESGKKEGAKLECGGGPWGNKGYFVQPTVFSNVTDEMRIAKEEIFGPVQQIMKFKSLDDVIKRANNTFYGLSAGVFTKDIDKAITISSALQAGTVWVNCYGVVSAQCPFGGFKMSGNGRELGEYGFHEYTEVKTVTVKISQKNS

| covalent labelling of bovine serum albumin [2] | targeted binding to ECH1 (ECH1) | targeted binding to MEK2 (MEK2) | selective modification of acidic amino acid residues (aspartic acid and glutamic acid) [3] | targeted binding to GAPDH (GAPDH) | targeted binding to ALDH1 (ALDH1) | Structure (SMILES) | covalent labelling of proteins at live-cell level [1] | selective modification of acidic amino acid residues (aspartic acid and glutamic acid) (HepG2 cells [HepG2细胞]) |
| --- | --- | --- | --- | --- | --- | --- | --- | --- |
| 能够共价标记牛血清蛋白 | – | – | – | – | – | C#Cc1ccc(OCc2ccc(S(=O)(=O)N(C)C#C)cc2)cc1 [YN-3] | 能够在活细胞水平共价标记蛋白 | – |
| 能够共价标记牛血清蛋白 | – | – | – | – | – | C#Cc1ccc(C#CN(C)S(=O)(=O)c2ccc(C)cc2)cc1 [YN-2] | 能够在活细胞水平共价标记蛋白 | – |
| 能够共价标记牛血清蛋白 | 能靶向结合 | 能靶向结合 | 可选择性修饰酸性氨基酸残基天冬氨酸残基及谷氨酸残基 | 能靶向结合 | 能靶向结合 | C#Cc1ccc(S(=O)(=O)N(C)C#C)cc1 [YN-1] | 能够在活细胞水平共价标记蛋白 | 可选择性修饰酸性氨基酸残基天冬氨酸残基及谷氨酸残基 |
